Measured values taken from US4206215A, “Antimicrobial bis-[4-(substituted-amino)-1-pyridinium]alkanes” (Sterling Drug Inc., priority 1977, dated 1980).
Read-outs that look alike come from different tables or passages of the source.

Columns and labels:
[1] = tested on: Herpes simplex type 2 virus; assay: Virucidal activity in vitro (plaque inhibition test); assay type: cell-based; settings: 2 mg. of test compound on growth medium
Procedure: Virucidal activity of representative examples against Herpes simplex type 2 virus was determined in vitro employing a procedure similar to the plaque inhibition test for detection of specific inhibitors of DNA-containing viruses published by E. C. Herrmann, Jr., Proc. Soc. Exp. Biol. Med. 107, 142 (1961) wherein 2 mg. of the test compound was placed on the surface of the growth medium.

E. coli Vogel = assay: In vitro antibacterial activity, MIC (modified Autotiter method); assay type: cell-based, Escherichia coli; settings: 18-20 hours at 37° C.; for MIC: Escherichia coli, 20 h, read-out: MIC E. coli Vogel
Procedure, shortened: (§1)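 Compounds are diluted serially by twofold steps in sterile water using the Autotiter, beginning with a 1,000 mcg./ml. solution; addition of inoculated double-strength semisynthetic medium with glucose yields final concentrations between 500 and 0.06 mcg./ml.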

E. coli AB1932-1 = assay: as above; assay type: cell-based, Escherichia coli; settings: 18-20 hours at 37° C.; for MIC: Escherichia coli, AB19321, 20 h, read-out: MIC E. coli AB1932-1
Procedure, shortened: as §1

S. Aureus ATCC 6538 = assay: Effect of serum on bacteriostatic activity (serial tube dilution test); assay type: cell-based, Staphyloccocus aureus; settings: for Fold Increase in MIC S. Aureus ATCC 6538: 40% vs 0% horse serum; for MIC: Staphylococcus aureus, ATCC6538
A. niger 16404 = assay: In vitro antifungal activity, MIC (modified Autotiter method); assay type: cell-based, Aspergillus niger; settings: 18-20 hours at 37° C.; for MIC: Aspergillus niger, 16404, 20 h, read-out: MIC A. niger 16404
Procedure, shortened: as §1

S. Aureus Smith = assay: In vitro antibacterial activity, MIC (modified Autotiter method); assay type: cell-based, Staphylococcus aureus; settings: Staphylococcus aureus, 20 h, 18-20 hours at 37° C.; read-out: MIC S. Aureus Smith
Procedure, shortened: as §1

Ps. aerug. MGH-2 = assay: as above; assay type: cell-based, Pseudomonas aeruginosa; settings: Pseudomonas aeruginosa, 20 h, 18-20 hours at 37° C.; read-out: MIC Ps. aerug. MGH-2
Procedure, shortened: as §1

[2] = 40% heat inactivated horse serum, read-out: MIC S. Aureus ATCC 6538 40% Serum
[3] = read-out: MIC S. Aureus ATCC 6538 0% Serum

Structure (SMILES) | Virucidal activity against Herpes simplex type 2 virus [1] | MIC (E. coli Vogel) [µg/mL] | MIC (E. coli AB1932-1) [µg/mL] | Fold Increase in MIC S. Aureus ATCC 6538 (S. Aureus ATCC 6538) [fold] | MIC (S. Aureus ATCC 6538; [2]) [µg/mL] | MIC (S. Aureus ATCC 6538; [3]) [µg/mL] | MIC (A. niger 16404) [µg/mL] | MIC (S. Aureus Smith) [µg/mL] | MIC (Ps. aerug. MGH-2) [µg/mL] | MIC E. coli Vogel (E. coli Vogel) [µg/mL] | MIC E. coli AB1932-1 (E. coli AB1932-1) [µg/mL] | MIC A. niger 16404 (A. niger 16404) [µg/mL]
CCCCCCCCNc1cc[n+](CCCCCCCC[n+]2ccc(NCCCCCCCC)cc2)cc1 [Example 11, 1,8-bis-[4-(octylamino)-1-pyridinium]octane dibromide] | active | 1 | 1 | 16 | 7.8 | 0.5 | 3.9 | 0.25 | 15.6 |  |  | 
CCCCCCCNc1cc[n+](CCCCCCCCC[n+]2ccc(NCCCCCCC)cc2)cc1 [Example 24, 1,9-bis-[4-(heptylamino)-1-pyridinium]nonane dibromide] | active | 1 | 1 | 16 | 1.95 | 0.125 | 3.9 | 0.25 | 62.5 |  |  | 
CCCCCCCNc1cc[n+](CCCCCCCCCCCC[n+]2ccc(NCCCCCCC)cc2)cc1 [Example 3, 1,12-bis-[4-(heptylamino)-1-pyridinium]dodecane dibromide] | active |  |  | 8 | 3.12 | 0.39 |  | 0.39 | 6.25 | 1.56 | 6.25 | 3.13
CCCCCCNc1cc[n+](CCCCCCCCCCCCCC[n+]2ccc(NCCCCCC)cc2)cc1 [Example 5C, 1,14-bis-[4-(hexylamino)-1-pyridinium]tetradecane dibromide] | active | 0.76 | 0.76 | 32 | 3.12 | 0.1 | 3 | 0.38 | 6 |  |  | 
CCCCC(CC)CNc1cc[n+](CCCCCCCCCC[n+]2ccc(NCC(CC)CCCC)cc2)cc1 (stereo not drawn) [Example 58, 1,10-bis-[4-(2-ethylhexylamino)-1-pyridinium]decane dibromide] | active | 1.5 |  | 16 | 3.9 | 0.25 |  | 0.24 | 48.4 |  | 0.37 | 6.0
